{"source": "ChEMBL document CHEMBL1201862", "about": "“PubChem BioAssay data set” (2004)", "key": {"[1]": {"assay": "microbe, parasite or virus in culture", "type": "functional", "conditions": "Mycobacterium tuberculosis"}, "[2]": {"molecular_target": "Voltage-dependent T-type calcium channel subunit alpha-1H (Homo sapiens, UniProt O95180)", "sequence (O95180 whole entry)": "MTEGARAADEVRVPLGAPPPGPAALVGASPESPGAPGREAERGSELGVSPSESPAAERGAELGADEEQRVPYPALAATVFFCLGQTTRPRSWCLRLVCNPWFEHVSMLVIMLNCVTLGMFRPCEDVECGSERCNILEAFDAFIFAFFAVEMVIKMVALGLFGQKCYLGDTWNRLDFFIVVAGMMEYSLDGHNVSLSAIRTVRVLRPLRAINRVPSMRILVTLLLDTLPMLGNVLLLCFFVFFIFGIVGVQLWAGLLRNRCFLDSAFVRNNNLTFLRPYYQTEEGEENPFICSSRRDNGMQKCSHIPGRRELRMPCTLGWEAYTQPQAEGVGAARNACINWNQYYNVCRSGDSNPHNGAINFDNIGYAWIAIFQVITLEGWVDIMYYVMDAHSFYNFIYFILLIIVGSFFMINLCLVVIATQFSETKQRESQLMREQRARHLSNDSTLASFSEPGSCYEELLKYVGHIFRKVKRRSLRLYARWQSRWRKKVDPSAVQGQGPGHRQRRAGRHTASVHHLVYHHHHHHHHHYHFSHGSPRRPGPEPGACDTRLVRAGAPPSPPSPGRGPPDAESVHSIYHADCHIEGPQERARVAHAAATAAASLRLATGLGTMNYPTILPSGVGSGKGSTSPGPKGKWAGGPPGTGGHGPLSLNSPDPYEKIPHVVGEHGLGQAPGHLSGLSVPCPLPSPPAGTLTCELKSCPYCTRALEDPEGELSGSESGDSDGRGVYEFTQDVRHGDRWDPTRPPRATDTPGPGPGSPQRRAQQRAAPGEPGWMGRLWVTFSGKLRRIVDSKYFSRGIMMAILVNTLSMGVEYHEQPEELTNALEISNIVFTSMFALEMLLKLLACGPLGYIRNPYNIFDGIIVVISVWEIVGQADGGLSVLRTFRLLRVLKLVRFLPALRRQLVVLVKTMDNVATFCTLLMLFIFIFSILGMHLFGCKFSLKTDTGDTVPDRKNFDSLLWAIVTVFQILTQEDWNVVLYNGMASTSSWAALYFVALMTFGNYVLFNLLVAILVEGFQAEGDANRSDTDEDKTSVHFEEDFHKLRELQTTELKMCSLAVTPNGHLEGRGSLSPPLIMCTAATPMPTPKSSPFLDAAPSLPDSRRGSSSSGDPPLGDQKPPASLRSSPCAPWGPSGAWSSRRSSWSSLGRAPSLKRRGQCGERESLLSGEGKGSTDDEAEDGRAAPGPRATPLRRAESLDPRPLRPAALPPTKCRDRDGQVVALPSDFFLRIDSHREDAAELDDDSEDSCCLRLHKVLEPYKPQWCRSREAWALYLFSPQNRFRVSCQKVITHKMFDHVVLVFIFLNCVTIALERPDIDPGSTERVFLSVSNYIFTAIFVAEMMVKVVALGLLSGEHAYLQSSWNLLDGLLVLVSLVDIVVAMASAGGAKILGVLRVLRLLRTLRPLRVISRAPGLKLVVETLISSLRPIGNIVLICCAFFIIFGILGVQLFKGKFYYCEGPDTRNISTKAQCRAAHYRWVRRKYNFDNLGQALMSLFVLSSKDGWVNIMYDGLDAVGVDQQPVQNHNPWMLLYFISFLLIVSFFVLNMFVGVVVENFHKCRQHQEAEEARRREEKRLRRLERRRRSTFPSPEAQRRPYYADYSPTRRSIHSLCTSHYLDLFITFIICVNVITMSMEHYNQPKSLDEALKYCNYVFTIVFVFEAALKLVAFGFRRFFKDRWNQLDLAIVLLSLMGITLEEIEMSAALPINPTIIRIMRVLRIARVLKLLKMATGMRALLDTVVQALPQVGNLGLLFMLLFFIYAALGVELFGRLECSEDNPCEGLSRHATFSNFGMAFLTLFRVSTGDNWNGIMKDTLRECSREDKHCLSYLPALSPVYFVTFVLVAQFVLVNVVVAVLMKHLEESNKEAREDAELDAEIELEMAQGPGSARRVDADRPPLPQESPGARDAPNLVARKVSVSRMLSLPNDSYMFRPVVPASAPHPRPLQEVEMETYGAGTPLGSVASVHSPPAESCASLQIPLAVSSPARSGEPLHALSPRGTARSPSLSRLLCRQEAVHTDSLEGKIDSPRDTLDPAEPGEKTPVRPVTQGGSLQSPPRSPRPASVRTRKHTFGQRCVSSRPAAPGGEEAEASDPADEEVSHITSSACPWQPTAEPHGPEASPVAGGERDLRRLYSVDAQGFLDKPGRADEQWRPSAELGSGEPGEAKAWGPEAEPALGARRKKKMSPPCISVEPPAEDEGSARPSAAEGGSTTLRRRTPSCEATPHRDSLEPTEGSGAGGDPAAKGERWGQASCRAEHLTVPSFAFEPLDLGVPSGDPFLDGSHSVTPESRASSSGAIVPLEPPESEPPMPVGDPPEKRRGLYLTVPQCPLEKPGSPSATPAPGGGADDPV", "type": "functional"}, "[3]": {"system": "Streptococcus sp. 'group A'", "assay": "Streptococcus pyogenes SK(-)GAS viability under kanamycin – luminescence, BacTiterGlo, confirmation, counter-screen for streptokinase expression inhibitor project, dose response (AID 1900)", "type": "functional, organism-based"}, "[4]": {"molecular_target": "T1, Streptokinase A (Streptococcus pyogenes serotype M1, UniProt P10520)", "T1 sequence (P10520 whole entry)": "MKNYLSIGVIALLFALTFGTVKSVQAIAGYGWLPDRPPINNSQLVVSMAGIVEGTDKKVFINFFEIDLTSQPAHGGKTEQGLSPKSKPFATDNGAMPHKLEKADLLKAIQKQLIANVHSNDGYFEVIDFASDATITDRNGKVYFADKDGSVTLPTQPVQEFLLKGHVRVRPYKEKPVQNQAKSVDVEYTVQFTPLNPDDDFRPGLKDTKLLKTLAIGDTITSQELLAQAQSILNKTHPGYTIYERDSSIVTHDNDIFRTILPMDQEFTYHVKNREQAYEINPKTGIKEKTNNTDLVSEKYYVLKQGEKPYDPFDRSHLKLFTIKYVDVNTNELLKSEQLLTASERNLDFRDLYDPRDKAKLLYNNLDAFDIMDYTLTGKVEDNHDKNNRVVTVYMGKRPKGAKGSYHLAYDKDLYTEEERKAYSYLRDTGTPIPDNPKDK", "assay": "viability-normalized secreted streptokinase activity reduction – plasminogen activation absorbance, OD405, dose response (AID 1914);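 note: secreted streptokinase activity via plasminogen activation per viability signal from cell pellet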", "type": "functional, Streptococcus pyogenes M1 GAS"}, "[5]": {"system": "Streptococcus", "assay": "GAS UMAA2166 growth inhibition – luminescence, BacTiterGlo, counter-screen for streptokinase expression inhibitor project, dose response (AID 1915);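 note: potency for reduction of bacterial viability or growth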", "type": "functional, organism-based"}, "[6]": {"molecular_target": "T2, Polyadenylate-binding protein 1 (Homo sapiens, UniProt P11940)", "T2 sequence (P11940 whole entry)": "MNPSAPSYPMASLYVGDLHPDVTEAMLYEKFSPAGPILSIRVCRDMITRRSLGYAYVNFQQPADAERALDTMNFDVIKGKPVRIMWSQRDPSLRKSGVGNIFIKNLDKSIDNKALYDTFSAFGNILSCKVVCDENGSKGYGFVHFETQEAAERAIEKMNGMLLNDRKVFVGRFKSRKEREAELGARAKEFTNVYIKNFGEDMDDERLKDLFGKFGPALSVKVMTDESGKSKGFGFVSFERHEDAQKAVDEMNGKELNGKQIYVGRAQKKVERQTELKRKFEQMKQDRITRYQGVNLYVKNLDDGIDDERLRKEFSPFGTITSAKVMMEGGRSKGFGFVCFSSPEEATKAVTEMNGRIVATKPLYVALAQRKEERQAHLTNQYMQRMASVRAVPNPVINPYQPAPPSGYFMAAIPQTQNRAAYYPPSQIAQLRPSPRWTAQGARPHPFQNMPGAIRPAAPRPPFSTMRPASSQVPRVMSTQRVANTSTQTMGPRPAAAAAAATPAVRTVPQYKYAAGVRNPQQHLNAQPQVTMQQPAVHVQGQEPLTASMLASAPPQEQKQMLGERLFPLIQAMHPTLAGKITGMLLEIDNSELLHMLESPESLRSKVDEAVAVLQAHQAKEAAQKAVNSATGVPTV", "assay": "MLLE binding blockers, Cy5 peptide tracer – biochemical, fluorescence polarization, Cy5-PAM2 peptide, secondary, miRNA deadenylation inhibitor project, dose response (AID 602260)", "type": "functional", "conditions": "read-out: IC50_Mean"}, "[7]": {"molecular_target": "T2, Polyadenylate-binding protein 1", "assay": "MLLE domain peptide-binding blockers, IC50 – biochemical, fluorescence polarization, FITC-PAM2 peptide, dose response (AID 602259)", "type": "functional", "conditions": "read-out: IC50_Mean"}, "[8]": {"molecular_target": "T3, Heat shock factor protein 1 (Mus musculus, UniProt P38532)", "T3 sequence (P38532 whole entry)": "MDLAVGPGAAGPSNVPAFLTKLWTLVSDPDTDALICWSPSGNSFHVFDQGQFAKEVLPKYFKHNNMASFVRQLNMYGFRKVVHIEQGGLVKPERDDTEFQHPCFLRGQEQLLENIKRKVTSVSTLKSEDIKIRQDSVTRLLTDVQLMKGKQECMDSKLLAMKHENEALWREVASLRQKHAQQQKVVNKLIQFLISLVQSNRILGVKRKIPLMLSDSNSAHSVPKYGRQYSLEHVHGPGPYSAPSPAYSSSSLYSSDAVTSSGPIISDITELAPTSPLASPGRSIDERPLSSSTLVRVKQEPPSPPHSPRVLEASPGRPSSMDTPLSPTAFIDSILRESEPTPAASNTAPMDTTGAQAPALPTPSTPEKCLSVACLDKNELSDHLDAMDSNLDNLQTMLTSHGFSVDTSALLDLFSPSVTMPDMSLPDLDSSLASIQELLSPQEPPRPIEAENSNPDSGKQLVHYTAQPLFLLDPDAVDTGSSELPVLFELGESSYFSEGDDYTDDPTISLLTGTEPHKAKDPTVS", "assay": "decrease of HSF1-responsive luciferase luminescence – cell-based, NIH3T3, dose retest, confirmation (AID 2382);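 note: NIH3T3 fibroblasts with HSF1-driven luciferase reporter stressed by proteasome inhibitor MG132; luminescence from HSF1-driven luciferase expression after 8 hours of MG132 stress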", "type": "functional"}, "[9]": {"molecular_target": "FAD-linked sulfhydryl oxidase ALR (Homo sapiens, UniProt P55789)", "sequence (P55789 whole entry)": "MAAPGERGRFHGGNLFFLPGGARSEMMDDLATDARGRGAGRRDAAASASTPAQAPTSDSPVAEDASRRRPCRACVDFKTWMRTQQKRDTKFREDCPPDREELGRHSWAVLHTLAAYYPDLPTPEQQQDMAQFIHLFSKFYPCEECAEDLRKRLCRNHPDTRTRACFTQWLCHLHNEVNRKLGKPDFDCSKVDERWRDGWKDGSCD", "assay": "ALR-catalysed DTT oxidation blockers – biochemical, H2O2 detection, luminescence, cherry-pick, dose response (AID 493248)"}, "[10]": {"molecular_target": "T4, Rac GTPase-activating protein 1 (Homo sapiens, UniProt Q9H0H5)", "T4 sequence (Q9H0H5 whole entry)": "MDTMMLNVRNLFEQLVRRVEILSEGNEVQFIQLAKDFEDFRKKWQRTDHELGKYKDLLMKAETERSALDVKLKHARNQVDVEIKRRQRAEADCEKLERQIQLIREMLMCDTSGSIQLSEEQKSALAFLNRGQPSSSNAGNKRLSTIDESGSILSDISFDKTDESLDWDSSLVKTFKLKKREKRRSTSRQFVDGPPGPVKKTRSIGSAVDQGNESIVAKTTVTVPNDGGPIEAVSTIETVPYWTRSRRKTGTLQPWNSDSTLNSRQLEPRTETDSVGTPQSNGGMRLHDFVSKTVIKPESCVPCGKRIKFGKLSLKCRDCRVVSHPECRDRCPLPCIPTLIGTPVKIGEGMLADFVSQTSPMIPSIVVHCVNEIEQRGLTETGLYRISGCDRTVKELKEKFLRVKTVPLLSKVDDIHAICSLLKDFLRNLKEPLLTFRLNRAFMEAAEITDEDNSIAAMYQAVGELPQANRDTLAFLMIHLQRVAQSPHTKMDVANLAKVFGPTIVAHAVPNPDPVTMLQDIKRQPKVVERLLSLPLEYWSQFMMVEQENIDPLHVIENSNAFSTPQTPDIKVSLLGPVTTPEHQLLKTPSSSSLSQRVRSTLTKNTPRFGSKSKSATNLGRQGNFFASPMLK", "assay": "blockers of MgcRacGAP-driven Rac1 GTP hydrolysis – biochemical, ADP Hunter fluorescence, primary and confirmatory, confirmation (AID 624330)", "type": "functional"}, "[11]": {"molecular_target": "Cytochrome P450 2D6 (Homo sapiens, UniProt P10635)", "sequence (P10635 whole entry)": "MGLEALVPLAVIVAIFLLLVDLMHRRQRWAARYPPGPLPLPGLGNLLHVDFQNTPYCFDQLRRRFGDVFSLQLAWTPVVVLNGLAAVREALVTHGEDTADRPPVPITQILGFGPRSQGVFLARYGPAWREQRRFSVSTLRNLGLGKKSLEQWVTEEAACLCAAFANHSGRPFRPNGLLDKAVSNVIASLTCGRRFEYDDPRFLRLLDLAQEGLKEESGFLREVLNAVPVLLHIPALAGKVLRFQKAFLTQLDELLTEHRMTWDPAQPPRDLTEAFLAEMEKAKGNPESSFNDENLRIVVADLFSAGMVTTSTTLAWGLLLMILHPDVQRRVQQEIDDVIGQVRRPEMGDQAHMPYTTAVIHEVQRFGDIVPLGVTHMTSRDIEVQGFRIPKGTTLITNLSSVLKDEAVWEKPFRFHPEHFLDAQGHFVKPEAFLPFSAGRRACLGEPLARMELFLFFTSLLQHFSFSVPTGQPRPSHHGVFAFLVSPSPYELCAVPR"}, "[12]": {"molecular_target": "Cytochrome P450 2C9 (Homo sapiens, UniProt P11712)", "sequence (P11712 whole entry)": "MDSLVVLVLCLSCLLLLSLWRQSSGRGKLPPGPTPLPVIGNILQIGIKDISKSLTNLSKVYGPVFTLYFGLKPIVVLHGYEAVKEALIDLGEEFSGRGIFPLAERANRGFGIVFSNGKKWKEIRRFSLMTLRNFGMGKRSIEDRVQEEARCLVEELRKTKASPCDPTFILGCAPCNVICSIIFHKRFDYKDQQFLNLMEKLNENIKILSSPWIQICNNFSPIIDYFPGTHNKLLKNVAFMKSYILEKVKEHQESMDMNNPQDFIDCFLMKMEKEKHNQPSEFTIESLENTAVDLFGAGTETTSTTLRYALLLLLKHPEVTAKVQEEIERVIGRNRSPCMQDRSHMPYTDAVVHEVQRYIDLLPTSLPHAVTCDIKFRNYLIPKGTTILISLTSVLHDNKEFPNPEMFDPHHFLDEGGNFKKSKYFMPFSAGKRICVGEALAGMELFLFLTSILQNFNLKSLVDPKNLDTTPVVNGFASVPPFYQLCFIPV"}, "[13]": {"molecular_target": "Luciferin 4-monooxygenase (Photinus pyralis, UniProt P08659)", "sequence (P08659 whole entry)": "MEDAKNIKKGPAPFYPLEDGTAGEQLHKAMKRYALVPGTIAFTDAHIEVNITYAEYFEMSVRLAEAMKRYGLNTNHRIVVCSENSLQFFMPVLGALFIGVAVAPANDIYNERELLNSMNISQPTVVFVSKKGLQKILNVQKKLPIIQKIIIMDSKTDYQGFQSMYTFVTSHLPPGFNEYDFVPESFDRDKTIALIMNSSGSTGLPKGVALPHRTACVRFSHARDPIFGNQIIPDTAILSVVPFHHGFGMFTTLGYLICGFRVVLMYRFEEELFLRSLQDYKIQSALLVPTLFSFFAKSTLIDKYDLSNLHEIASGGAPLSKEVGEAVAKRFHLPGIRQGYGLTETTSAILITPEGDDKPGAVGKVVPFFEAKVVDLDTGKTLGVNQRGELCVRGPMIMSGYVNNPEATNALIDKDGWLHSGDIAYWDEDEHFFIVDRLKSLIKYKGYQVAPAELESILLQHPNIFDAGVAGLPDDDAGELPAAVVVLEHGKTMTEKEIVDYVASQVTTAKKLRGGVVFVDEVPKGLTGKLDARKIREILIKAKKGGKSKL", "assay": "inhibition of purified Photinus pyralis luciferase – biochemical, luminescence, dose response (AID 1891)"}, "[14]": {"assay": "Luminescence Cell-Based Dose Confirmation HTS to Identify Inhibitors of Platelet Dense Granule Release. [Related pubchem assays: 1663 (Primary HTS), 1678 (Summary of Project)]", "type": "functional"}, "[15]": {"assay": "reduction of Shn3 3'UTR-driven luciferase in osteoblasts – cell-based, Clone20 osteoblasts, firefly luciferase, cherry-picked, dose response (AID 624132);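 note: firefly luciferase luminescence from reporter carrying the Shn3 3'UTR in osteoblasts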", "type": "functional"}, "[16]": {"assay": "loss of viability in HepG2 cells – cell-based, CellTiter-Glo, cherry-picked, cytotoxicity control for Shn3 inhibitor project, dose response (AID 624134)", "type": "functional"}, "[17]": {"assay": "blockers of HIV-1 envelope-mediated cell-cell fusion – cherry-pick, dose response (AID 652057)", "type": "functional, cell-based"}, "[18]": {"assay": "blockers of HIV-1 ZM109 envelope-driven cell-cell fusion – HeLa effector, CEM target cells, luciferase, cherry-pick, dose response (AID 652058)", "type": "functional, cell-based"}, "[19]": {"assay": "HIV-1 AD8 envelope cell-cell fusion blockers – cherry-pick, dose response (AID 652062);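 note: luciferase signal from cell-cell fusion driven by HIV-1 clade B AD8 Env; potency is for inhibitors of fusion seen as a drop in luminescence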", "type": "functional, cell-based"}}, "note": "Active and inactive are the calls of the source."}
{"compound": "CC(=O)c1ccc2c(c1)C1C(Cl)C(Sc3ccccc3[N+](=O)[O-])CC1C(c1ccccc1)N2", "note": "(stereo unspecified)", "values": [{"measurement": "CC50", "setting": "[1]", "value": "> 40 µM (active)"}]}
{"compound": "CCS(=O)(=O)n1nc(NCc2cccc(OC)c2)nc1NCc1cccc(OC)c1", "values": [{"measurement": "EC50", "setting": "[2]", "value": "8.18 µM (active)"}]}
{"compound": "COc1ccc(NC(=S)N=Nc2c(O)[nH]c3ccccc23)cc1", "values": [{"measurement": "EC50", "setting": "[3]", "value": "2.34 µM (active)"}, {"measurement": "EC50", "setting": "[4]", "value": "> 150 µM (not active)"}, {"measurement": "EC50", "setting": "[5]", "value": "14.1 µM (active)"}, {"measurement": "IC50", "setting": "[6]", "value": "> 66 µM (inactive)"}, {"measurement": "IC50", "setting": "[7]", "value": "> 66 µM (inactive)"}]}
{"compound": "Cc1cc(C)c(S(=O)(=O)Nc2ccc(N(C)C)cc2)c(C)c1-n1cnnn1", "values": [{"measurement": "EC50", "setting": "[8]", "value": "> 195 µM (not active)"}, {"measurement": "AC50", "setting": "[9]", "value": "0.197 µM (active)"}, {"measurement": "IC50", "setting": "[10]", "value": "41.6 µM (active)"}]}
{"compound": "Cc1cnc(NC(=O)NCC2CCCC(CNC(=O)Nc3ncc(C)s3)C2)s1", "note": "(stereo unspecified)", "values": [{"measurement": "CC50", "setting": "[1]", "value": "> 40 µM (active)"}]}
{"compound": "O=c1[nH]c2cc3c(cc2cc1CN(CCCO)Cc1nnnn1Cc1ccc(F)cc1)OCO3", "values": [{"measurement": "IC50", "setting": "[6]", "value": "> 66 µM (inactive)"}, {"measurement": "IC50", "setting": "[7]", "value": "> 66 µM (inactive)"}, {"measurement": "AC50", "setting": "[11]", "value": "12.6 µM (inconclusive)"}, {"measurement": "AC50", "setting": "[12]", "value": "11.2 µM (inconclusive)"}]}
{"compound": "CNc1nnc(CSc2nc3ccccc3s2)s1", "values": [{"measurement": "AC50", "setting": "[9]", "value": "0.714 µM (active)"}]}
{"compound": "O=C(Cn1cccc1)N1CCN(c2ccc(F)cc2)CC1", "values": [{"measurement": "EC50", "setting": "[13]", "value": "> 112 µM (not active)"}, {"measurement": "EC50", "setting": "[14]", "value": "> 112 µM (not active)"}]}
{"compound": "COc1cccc(/C=C2\\SC(=S)N(c3cccnc3)C2=O)c1OC", "values": [{"measurement": "IC50", "setting": "[6]", "value": "> 66 µM (inactive)"}, {"measurement": "IC50", "setting": "[7]", "value": "> 66 µM (inactive)"}]}
{"compound": "Cn1cccc1Cc1nnc(SCC(=O)Nc2cccc(F)c2)n1-c1ccc(F)cc1", "values": [{"measurement": "EC50", "setting": "[2]", "value": "3.35 µM (active)"}]}
{"compound": "CCC12CN(S(=O)(=O)c3ccc(C)cc3)CC(CC)(CN(S(=O)(=O)c3ccc(C)cc3)C1)C2=O", "values": [{"measurement": "AC50", "setting": "[15]", "value": "3.48 µM (active)"}, {"measurement": "AC50", "setting": "[16]", "value": "66.7 µM (active)"}, {"measurement": "AC50", "setting": "[17]", "value": "2.44 µM (active)"}, {"measurement": "AC50", "setting": "[18]", "value": "42.7 µM (active)"}, {"measurement": "AC50", "setting": "[19]", "value": "22 µM (active)"}]}
{"compound": "Cc1ccc(C(=O)N2CCN(c3ccccc3O)CC2)cc1S(=O)(=O)N1CCCCC1", "values": [{"measurement": "AC50", "setting": "[9]", "value": "9.33 µM (active)"}]}
{"compound": "Cc1ccc(S(=O)(=O)N(C)C[C@@H]2Oc3ccc(NS(=O)(=O)c4ccccc4)cc3CC(=O)N([C@H](C)CO)C[C@@H]2C)cc1", "values": [{"measurement": "AC50", "setting": "[17]", "value": "2.75 µM (active)"}, {"measurement": "AC50", "setting": "[18]", "value": "8.38 µM (active)"}, {"measurement": "AC50", "setting": "[19]", "value": "26.6 µM (active)"}]}
{"compound": "O=C(NC12CC3CC(CC(C3)C1)C2)c1cnccn1", "values": [{"measurement": "IC50", "setting": "[6]", "value": "43.3 µM (inactive)"}, {"measurement": "IC50", "setting": "[7]", "value": "38.7 µM (inactive)"}]}
{"compound": "COc1c(/C=N/NC(=O)c2ccccc2O)c(CCN(C)C(C)=O)cc2c1OCO2", "values": [{"measurement": "EC50", "setting": "[13]", "value": "> 112 µM (not active)"}, {"measurement": "EC50", "setting": "[14]", "value": "> 112 µM (not active)"}]}
{"compound": "O=C(O)CCCCCCC1C(=O)NC(=O)N1CCC(O)C1CCCCC1", "note": "(stereo unspecified)", "values": [{"measurement": "EC50", "setting": "[13]", "value": "> 112 µM (not active)"}, {"measurement": "EC50", "setting": "[14]", "value": "< 0.088 µM (active)"}]}
